The source of these data is patent US12448433B2, “Human ApoB100 epitopes, methods and uses for modulating inflammatory responses, and treating adverse cardiovascular events, disease and atherosclerosis” (LA JOLLA INSTITUTE FOR ALLERGY AND IMMUNOLOGY, priority 2015, dated 2025).

What all share (design): species or system human
One assay has as its target DQB1*06:02. As to the kind of experiment: Peptide binding to HLA-DQ allele, competition assay. An excerpt: (§1) Peptide binding to MHC-II requires anchor residues in certain positions and thus can be predicted using computer algorithms. Affinity can be measured experimentally using a competition assay (1). Both are excellent screening tools. However, affinity must be measured separately for each MHC-II allele. Humans express molecules encoded in four different MHC-II loci, denominated HLA-DRB1, DRB3/4/5, DP and DQ. Allelic variation is large, and most people are heterozygous at each locus, thus expressing up to 8 relevant MHC-II alleles. CD4 T cell responses strictly require that the antigenic peptide binds to the relevant MHC-II.
(§2) To identify peptides that could potentially be used in human patients, 30 peptides were screened for binding to 26 HLA alleles by competition assay.

The target in the next assay is DPB1*14:01. As to the kind of experiment: Peptide binding to HLA-DP allele, competition assay.
Source text: as §1, §2

Another assay deals with DPB1*05:01. The description is as above.
Source text: as §1, §2

A further assay has as its target DQB1*05:01. As to the kind of experiment: Peptide binding to HLA-DQ allele, competition assay.
Source text: as §1, §2

pIC50: −log10 of the molar value.

In the case of `CC[C@H](C)[C@H](NC(=O)[C@H](CCC(=O)O)NC(=O)[C@@H](N)CC(=O)O)C(=O)N[C@@H](CC(N)=O)C(=O)N[C@H](C(=O)N[C@H](C(=O)N[C@@H](Cc1ccccc1)C(=O)N[C@@H](CO)C(=O)N[C@@H](CC(=O)O)C(=O)N[C@@H](Cc1ccc(O)cc1)C(=O)N[C@H](C(=O)N1CCC[C@H]1C(=O)N[C@@H](Cc1ccc(O)cc1)C(=O)N[C@H](C(=O)N[C@@H](Cc1ccccc1)C(=O)O)C(C)C)[C@@H](C)CC)[C@@H](C)CC)[C@@H](C)O` [Peptide 3563.0026], the pIC50 at DQB1*06:02 is 5.34; at DPB1*14:01, 4.82; at DPB1*05:01 it was 5.16.
Turning to `CC[C@H](C)[C@H](NC(=O)[C@H](CC(C)C)NC(=O)[C@H](Cc1ccc(O)cc1)NC(=O)[C@@H](NC(=O)[C@H](Cc1ccccc1)NC(=O)[C@@H](N)CCCCN)[C@@H](C)O)C(=O)N[C@@H](CC(N)=O)C(=O)N[C@@H](Cc1ccc(O)cc1)C(=O)N[C@H](C(=O)N[C@@H](CCC(N)=O)C(=O)N[C@@H](CC(=O)O)C(=O)N[C@@H](CCC(=O)O)C(=O)N[C@H](C(=O)N[C@@H](CC(N)=O)C(=O)N[C@H](C(=O)O)[C@@H](C)O)[C@@H](C)CC)[C@@H](C)CC` [Peptide 3563.0025], the pIC50 at DQB1*05:01 is 7.89; on DPB1*14:01 it was 4.86.
In the case of `CC[C@H](C)[C@H](N)C(=O)N[C@@H](CC(C)C)C(=O)N[C@@H](Cc1ccccc1)C(=O)N[C@@H](CO)C(=O)N[C@@H](Cc1ccc(O)cc1)C(=O)N[C@@H](Cc1ccccc1)C(=O)N[C@@H](CCC(N)=O)C(=O)N[C@@H](CC(=O)O)C(=O)N[C@@H](CC(C)C)C(=O)N[C@H](C(=O)N[C@H](C(=O)N[C@H](C(=O)N[C@@H](CC(C)C)C(=O)N1CCC[C@H]1C(=O)N[C@@H](Cc1ccccc1)C(=O)O)[C@@H](C)O)[C@@H](C)CC)C(C)C` [Peptide 3563.0023], the pIC50 was 4.91 at DQB1*06:02, 7.72 on DQB1*05:01 and 5.42 at DPB1*05:01.
`CC[C@H](C)[C@H](NC(=O)[C@H](CCC(=O)O)NC(=O)[C@H](CC(=O)O)NC(=O)[C@@H](NC(=O)[C@@H](NC(=O)[C@H](CC(N)=O)NC(=O)[C@H](C)NC(=O)[C@@H](NC(=O)[C@H](C)NC(=O)[C@@H](NC(=O)[C@H](CCCCN)NC(=O)[C@H](CC(C)C)NC(=O)[C@H](CC(=O)O)NC(=O)[C@H](Cc1c[nH]cn1)NC(=O)[C@@H](N)CC(C)C)[C@@H](C)CC)[C@@H](C)CC)[C@@H](C)CC)[C@@H](C)CC)C(=O)O` [Peptide 3563.0013]: the negative logarithm of the IC50 (pIC50) is 5.74 on DQB1*06:02, 6.16 at DQB1*05:01 and 5.19 at DPB1*05:01.
On to `CC(C)C[C@H](NC(=O)[C@H](CC(C)C)NC(=O)[C@H](Cc1ccccc1)NC(=O)[C@H](CCCCN)NC(=O)[C@H](CO)NC(=O)[C@H](Cc1ccc(O)cc1)NC(=O)[C@H](CC(C)C)NC(=O)[C@@H](N)CCC(N)=O)C(=O)N[C@@H](CCCCN)C(=O)N[C@@H](C)C(=O)N[C@@H](CCC(=O)O)C(=O)N1CCC[C@H]1C(=O)N[C@@H](CC(C)C)C(=O)N[C@@H](C)C(=O)N[C@@H](Cc1ccccc1)C(=O)O` [Peptide 3563.0011], for which the pIC50 on DQB1*05:01 is 6.23; on DPB1*14:01, 7.29; at DPB1*05:01 it was 7.08.
With `CC[C@H](C)[C@H](NC(=O)[C@H](CC(C)C)NC(=O)[C@@H](N)CC(C)C)C(=O)N[C@@H](CC(=O)O)C(=O)N[C@H](C(=O)N[C@H](C(=O)N[C@H](C(=O)N[C@@H](Cc1ccc(O)cc1)C(=O)N[C@@H](CC(C)C)C(=O)N[C@H](C(=O)N[C@@H](C)C(=O)N[C@@H](CC(C)C)C(=O)N[C@H](C(=O)N1CCC[C@H]1C(=O)N[C@@H](CCC(=O)O)C(=O)O)[C@@H](C)CC)C(C)C)[C@@H](C)O)C(C)C)C(C)C` [Peptide 3563.0002], the pIC50 at DQB1*06:02 was 4.41; at DQB1*05:01, 5.44; at DPB1*14:01 it was 5.07.
